Laboratory results from patent US20050112706A1, “Diagnostic and prognostic methods for prostate cancers” (priority 2002, published 2005).

What was measured:
endogenous AR = endogenous AR (Homo sapiens, UniProt P10275)
mutant LNCaP AR = mutant LNCaP AR (Homo sapiens, UniProt P10275, T878A); conditions: LNCaP cells, increasing concentrations of R1881 (10^−12 to 10^−6 M)
HPE cells = test: 2D difference gel electrophoresis (DIGE) of hormone-treated HPE cells; assay type: cell-based, human; conditions: 10^−8 M DHT or 10^−5 M flutamide vs (−) hormone
Excerpt: FIGS. 9A-B. Identification of androgen- and flutamide-regulated proteins by 2D difference gel electrophoresis. […] Whole cell proteins were extracted, labeled with the dyes Cy2 (ex 480, em 530), Cy3 (ex 540, em 590), and Cy5 (ex 620, em 680) respectively. The labeled proteins were mixed together and subjected to a pH gradient of pH 4 to pH 7 in the first dimension and separated by PAGE in the second dimension. […] The proteins were excised, subjected to in-gel tryptic digestion and analyzed by MS. The tryptic peptides were identified by searching the protein data bases such as the NCBInr and SWISS- PROT databases. EST databases were also searched with fragmentation data from tandem mass spectrometry when necessary.
Identification of antiandrogen-regulated genes. […] In this study, 8 proteins were identified by tryptic mapping and the sequences verified by partial amino acid sequencing of individual tryptic peptides (FIG. 9B). […] Of particular interest were calreticulin, DJ-1 and non-selenium glutathione peroxidase. Calreticulin binds to the AR DNA binding domain to block AR-activated transcription. Therefore, down-regulation of calreticulin expression would typically facilitate AR binding to the AR binding site to transactivate gene expression (Dedhar et al., 1994). Calreticulin also interacts with integrins during cell attachment and spreading (Coppolino and Dedhar, 1999) and a loss or decrease in calreticulin could potentially increase cell motility and increase HPE cell metastatic potential. The RNA binding protein regulatory subunit DJ-1 has oncogenic potential, transforming NIH3T3 cells in cooperation with ras (Nagakubo et al., 1997). DJ-1 also positively regulates AR-activated transcription by binding PIASx alpha and making it unavailable for the AR:PIASx alpha complex which functions to inhibit AR activation (Takahasi et al., 2001). Non-selenium glutathione peroxidase gene was initially identified as a KGF-regulated gene (Munz et al., 1997) and it is highly expressed in the hyperproliferative epithelium at the wound edge.

Sequence of endogenous AR (P10275 whole entry): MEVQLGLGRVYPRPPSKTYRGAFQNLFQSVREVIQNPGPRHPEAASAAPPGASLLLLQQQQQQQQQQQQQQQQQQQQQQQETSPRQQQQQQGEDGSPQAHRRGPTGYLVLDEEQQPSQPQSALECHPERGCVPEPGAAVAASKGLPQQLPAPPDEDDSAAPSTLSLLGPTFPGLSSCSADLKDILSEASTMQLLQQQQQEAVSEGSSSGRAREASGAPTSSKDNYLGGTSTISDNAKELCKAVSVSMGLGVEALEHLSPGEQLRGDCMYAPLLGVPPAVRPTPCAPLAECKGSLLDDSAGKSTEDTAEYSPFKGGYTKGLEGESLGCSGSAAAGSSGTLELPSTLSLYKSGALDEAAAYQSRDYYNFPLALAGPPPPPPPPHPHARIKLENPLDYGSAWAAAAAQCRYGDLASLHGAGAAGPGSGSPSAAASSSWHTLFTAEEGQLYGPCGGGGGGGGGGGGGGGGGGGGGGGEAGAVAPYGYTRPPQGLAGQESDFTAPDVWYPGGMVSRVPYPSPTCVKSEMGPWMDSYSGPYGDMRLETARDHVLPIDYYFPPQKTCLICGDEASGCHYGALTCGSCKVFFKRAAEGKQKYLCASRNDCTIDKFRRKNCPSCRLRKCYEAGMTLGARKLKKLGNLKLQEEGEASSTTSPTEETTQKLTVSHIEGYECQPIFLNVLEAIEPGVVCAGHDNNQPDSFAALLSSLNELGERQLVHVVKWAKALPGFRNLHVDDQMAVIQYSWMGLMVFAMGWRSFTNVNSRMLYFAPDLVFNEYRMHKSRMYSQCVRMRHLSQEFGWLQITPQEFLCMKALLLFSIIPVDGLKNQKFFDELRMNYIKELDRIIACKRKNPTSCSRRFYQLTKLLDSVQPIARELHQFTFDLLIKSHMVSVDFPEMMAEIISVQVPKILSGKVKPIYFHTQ
Sequence of mutant LNCaP AR (P10275 whole entry T878A): as the sequence (P10275 whole entry) above, with T878A counted along it

| SMILES | ARR2PB-activated CAT gene expression on addition of androgen (endogenous AR) | CAT gene expression on addition of androgen (endogenous AR) | concentration at which near maximal CAT activity was observed (mutant LNCaP AR) | Calreticulin expression (HPE cells) | expression of actin (HPE cells) | expression of annexin V (HPE cells) | expression of glutathione S-transferase (HPE cells) | expression of vimentin (HPE cells) |
| --- | --- | --- | --- | --- | --- | --- | --- | --- |
| C[C@]1(O)CC[C@H]2[C@@H]3CCC4=CC(=O)CCC4=C3C=C[C@@]21C [R1881] | did not increase these levels any further | did not increase CAT gene expression any further | 10^−8 M | – | – | – | – | – |
| C[C@]12CCC(=O)C[C@@H]1CC[C@@H]1[C@@H]2CC[C@]2(C)[C@@H](O)CC[C@@H]12 [DHT] | – | – | – | increased | down-regulated | down-regulated | down-regulated | down-regulated |
